Assay results reported in patent US20210345603A1, “COMPOSITION INTENDED FOR INCREASING THE VELOCITY OF SPERMS COMPRISING SEROTONIN AS ACTIVE COMPOUND” (YILDIZ TEKNÍK ÜNIÌVERSÍTESÌ, priority 2018, published 2021).

What was measured:
[1] = test system: sperm cells; assay: Sperm motility test in Makler counting chamber after incubation in sperm wash medium; type: cell-based, human; design: unit not given here
Description: The first step is to collect the sperm cells and the semen of the infertile men within the range of 28-45 is used. Specimens are obtained after a sexual abstinence for 3-4 days. All semen specimens are collected in sterile containers and left to liquefy at 37° C. for 30 minutes. 10 μl of sample is taken into Makler® counting chamber and the concentrations, motilities, viabilities, morphologies of the sperms and the leukocyte existence are evaluated. According to the motility results, the semen specimen is prepared by being washed with HTF based sperm wash solution containing Hepes buffer by using concentration and gradient methods. Washed and prepared sperms are collected in the sperm wash medium in which certain amounts of (25, 50, 100 and 200 μM) 5-HT was added, and incubated at 25′C in certain periods of time (30, 60, 90 and 120 minutes).
Sperm motility tests are performed with the sperms kept in a serotonin medium, by the measurements in the Makler® counting chamber with 30, 60, 90 and 120 min. intervals. Samples with a sperm concentration of 2×10^6 and 50×10^5 per ml max. are included in the analyses. As to the interactions of serotonin and the excipients, washed sperm cells are taken into the sperm wash mediums containing 5-HT and vitamin D, serotonin, selenium, zinc mineral, vitamin C, vitamin E, vitamin B9, vitamin B12 in certain amounts respectively, and are incubated for certain time intervals in an incubator. The dosage of the compounds is determined by examining the effect of the same on sperm motility, both individually and in combination.

[2] = test system: fruit flies; details: fruit flies incapable of mating, after being fed with serotonin; cited from earlier work

NCCc1c[nH]c2ccc(O)cc12 [serotonin]
Change in Average Motility ([1]; 25 μM serotonin, 30 min incubation at 25° C.): 82.76
Change in Average Motility ([1]; 25 μM serotonin, 60 min incubation at 25° C.): 86.28
Change in Average Motility ([1]; 25 μM serotonin, 90 min incubation at 25° C.): 81.48
Change in Average Motility ([1]; 25 μM serotonin, 120 min incubation at 25° C.): 81.41
Change in Average Motility ([1]; 50 μM serotonin, 30 min incubation at 25° C.): 80.56
Change in Average Motility ([1]; 50 μM serotonin, 60 min incubation at 25° C.): 81.66
Change in Average Motility ([1]; 50 μM serotonin, 90 min incubation at 25° C.): 86.08
Change in Average Motility ([1]; 50 μM serotonin, 120 min incubation at 25° C.): 80.45
Change in Average Motility ([1]; 100 μM serotonin, 30 min incubation at 25° C.): 83.53
Change in Average Motility ([1]; 100 μM serotonin, 60 min incubation at 25° C.): 80.16
Change in Average Motility ([1]; 100 μM serotonin, 90 min incubation at 25° C.): 83.86
Change in Average Motility ([1]; 100 μM serotonin, 120 min incubation at 25° C.): 80.4
Change in Average Motility ([1]; 200 μM serotonin, 30 min incubation at 25° C.): 82.06
Change in Average Motility ([1]; 200 μM serotonin, 60 min incubation at 25° C.): 86.46
Change in Average Motility ([1]; 200 μM serotonin, 90 min incubation at 25° C.): 86.55
Change in Average Motility ([1]; 200 μM serotonin, 120 min incubation at 25° C.): 82.55
Mating rate [2]: 25%
